Among the data in patent US11673898B2, “Substituted inhibitors of menin-MLL and methods of use” (Kura Oncology, Inc., priority 2016, dated 2023) are IC50 values, retold here.

The target in the test is T1, Menin MLL 4-43 (Homo sapiens, UniProt O00255).
T1 sequence (O00255 1-610): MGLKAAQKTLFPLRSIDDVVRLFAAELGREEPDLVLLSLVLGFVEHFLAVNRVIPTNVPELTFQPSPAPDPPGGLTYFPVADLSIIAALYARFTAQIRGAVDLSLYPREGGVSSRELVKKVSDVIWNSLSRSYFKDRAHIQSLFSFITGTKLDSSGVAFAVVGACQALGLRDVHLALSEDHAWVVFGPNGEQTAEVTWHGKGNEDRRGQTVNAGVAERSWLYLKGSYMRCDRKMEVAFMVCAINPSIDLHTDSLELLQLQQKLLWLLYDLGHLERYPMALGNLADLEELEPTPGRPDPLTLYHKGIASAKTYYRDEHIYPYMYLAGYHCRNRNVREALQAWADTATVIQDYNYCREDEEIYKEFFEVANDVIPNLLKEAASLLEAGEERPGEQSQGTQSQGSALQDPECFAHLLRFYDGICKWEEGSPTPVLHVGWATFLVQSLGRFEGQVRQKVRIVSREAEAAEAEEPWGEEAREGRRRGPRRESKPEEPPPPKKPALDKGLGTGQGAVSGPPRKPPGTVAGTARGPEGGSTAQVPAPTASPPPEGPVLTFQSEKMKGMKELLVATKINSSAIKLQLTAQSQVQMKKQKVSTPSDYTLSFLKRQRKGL
As to the kind of experiment: Fluorescence polarization (FP) competition assay of the menin-MLL interaction. Type of test: binding. Particulars: fluorescence polarization assay; read-out: Menin MLL 4-43 IC50. In general terms: Polarisation of emitted light reports the rotation of a fluorescent probe.
A word on the IC50: it is the midpoint of a concentration-inhibition curve. On to `Cc1c(CN2CCC(Nc3ncnc4sc(CC(F)(F)F)cc34)CC2)ccc2c1cc(C#N)n2C[C@H](C)N1CCN(S(=O)(=O)NCCO)CC1` [Compound 131], for which the IC50 is below 50 nM.
Turning to `COCC(=O)N1CCN([C@@H](C)Cn2c(C#N)cc3c(C)c(CN4CCC(Nc5ncnc6sc(CC(F)(F)F)cc56)CC4)ccc32)CC1` [Compound 133], the half-maximal inhibitory concentration (IC50) is 50 to 250 nM.
As to `Cc1c(CN2CCC(Nc3nc(N)nc4sc(CC(F)(F)F)cc34)CC2)ccc2c1cc(C#N)n2C[C@H](C)N1CCN(C=O)CC1` [Compound 134], the IC50 is below 50 nM.
Consider `Cc1nc(NC2CCN(Cc3ccc4c(cc(C#N)n4C[C@H](C)N4CCN(C=O)CC4)c3C)CC2)c2cc(CC(F)(F)F)sc2n1` [Compound 136], for which the half-inhibitory concentration (IC50) is below 50 nM.
Consider `Cc1nc(NC2CCN(Cc3ccc4c(cc(C#N)n4C[C@H](C)N4CCN(S(=O)(=O)CF)CC4)c3C)CC2)c2cc(CC(F)(F)F)sc2n1` [Compound 137], for which the IC50 fell in the range of 50 to 250 nM.
Take `Cc1c(CN2CCC(Nc3ncnc4sc(CC(F)(F)F)cc34)CC2)ccc2c1cc(C#N)n2C[C@H](C)N1CCN(S(=O)(=O)N2CC2)CC1` [Compound 140]: the IC50 lay within 50 to 250 nM.
For `CCCNS(=O)(=O)N1CCN([C@@H](C)Cn2c(C#N)cc3c(C)c(CN4CCC(Nc5ncnc6sc(CC(F)(F)F)cc56)CC4)ccc32)CC1` [Compound 141], the IC50 was below 50 nM.
As for `CCCCNS(=O)(=O)N1CCN([C@@H](C)Cn2c(C#N)cc3c(C)c(CN4CCC(Nc5ncnc6sc(CC(F)(F)F)cc56)CC4)ccc32)CC1` [Compound 142], the IC50 fell in the range of 50 to 250 nM.
The figure for `Cc1c(CN2CCC(Nc3ncnc4sc(CC(F)(F)F)cc34)CC2)ccc2c1cc(C#N)n2C[C@H](C)N1CCN(C2=NCCO2)CC1` [Compound 143] is 50 to 250 nM; for `Cc1c(CN2CCC(Nc3ncnc4sc(CC(F)(F)F)cc34)CC2)ccc2c1cc(C#N)n2C[C@H](C)N1CCN(S(=O)(=O)C(F)F)CC1` [Compound 144] it is 50 to 250 nM.
With `Cc1c(CN2CCC(Nc3ncnc4sc(CC(F)(F)F)cc34)CC2)ccc2c1cc(C#N)n2C[C@H](C)N1CCN(S(=O)(=O)CF)[C@H](C)C1` [Compound 145], the IC50 lay within 50 to 250 nM.
As to `Cc1nc(NC2CCN(Cc3ccc4c(cc(C#N)n4C[C@H](C)N4CCN(S(=O)(=O)C5CC5)CC4)c3C)CC2)c2cc(CC(F)(F)F)sc2n1` [Compound 146], the IC50 was 50 to 250 nM.
Regarding `Cc1c(CN2CCC(Nc3nc(N)nc4sc(CC(F)(F)F)cc34)CC2)ccc2c1cc(C#N)n2C[C@H](C)N1CCN(S(=O)(=O)C2CC2)CC1` [Compound 147], the half-inhibitory concentration (IC50) is below 50 nM.
Regarding `Cc1c(CN2CCC(Nc3ncnc4sc(CC(F)(F)F)cc34)CC2)ccc2c1cc(C#N)n2C[C@H](C)N1CCNCC1` [Compound 148], the IC50 is below 50 nM.
Turning to `Cc1c(CN2CCC(Nc3nc(N)nc4sc(CC(F)(F)F)cc34)CC2)ccc2c1cc(C#N)n2C[C@H](C)N1CCN(S(=O)(=O)CF)CC1` [Compound 149], the half-maximal inhibitory concentration (IC50) is below 50 nM.
Regarding `Cc1c(CN2CCC(Nc3ncnc4sc(CC(F)(F)F)cc34)CC2)ccc2c1cc(C#N)n2C[C@H](C)N1CCN(P(C)(C)=O)CC1` [Compound 150], the IC50 was 50 to 250 nM.
Consider `Cc1c(CN2CCC(Nc3ncnc4sc(CC(F)(F)F)cc34)CC2)ccc2c1cc(C#N)n2C[C@H](C)N1C[C@@H](C)N(S(=O)(=O)CF)[C@@H](C)C1` [Compound 152], for which the 50% inhibitory concentration (IC50) lay within 50 to 250 nM.
For the molecule `[2H]C1([2H])N([C@@H](C)Cn2c(C#N)cc3c(C)c(CN4CCC(Nc5ncnc6sc(CC(F)(F)F)cc56)CC4)ccc32)C([2H])([2H])C([2H])([2H])N(S(C)(=O)=O)C1([2H])[2H]` [Compound 153], the IC50 fell in the range of 50 to 250 nM.
As for `Cc1c(CN2CCC(Nc3ncnc4sc(CC(F)(F)F)cc34)CC2)ccc2c1cc(C#N)n2C[C@H](C)N1CCN(CC(N)=O)CC1` [Compound 154], the IC50 is below 50 nM.
With `Cc1c(CN2CCC(Nc3ncnc4sc(CC(F)(F)F)cc34)CC2)ccc2c1cc(C#N)n2C[C@H](C)N1CCN(C(C)C(N)=O)CC1` (some centres unmarked) [Compound 156], the IC50 was in the range of 50 to 250 nM.
For the molecule `Cc1c(CN2CCC(Nc3ncnc4sc(CC(F)(F)F)cc34)CC2)ccc2c1cc(C#N)n2C[C@H](C)N1CCC(NP(C)(C)=O)CC1` [Compound 157], the IC50 is 20 to 1000 nM.
As for `Cc1c(CN2CCC(Nc3nc(N)nc4sc(CC(F)(F)F)cc34)CC2)ccc2c1cc(C#N)n2C[C@H](C)N1CCC(S(C)(=O)=O)CC1` [Compound 158], the IC50 was below 50 nM.
As to `C[C@@H](Cn1c(C#N)cc2cc(CN3CCC(Nc4ncnc5sc(CC(F)(F)F)cc45)CC3)c(O)cc21)N1CCN(C=O)CC1` [Compound 159], the half-inhibitory concentration (IC50) fell in the range of 50 to 250 nM.
Regarding `C[C@@H](Cn1c(C#N)cc2cc(CN3CCC(Nc4ncnc5sc(CC(F)(F)F)cc45)CC3)c(O)cc21)N1CCN(S(C)(=O)=O)CC1` [Compound 160], the concentration for half-maximal inhibition (IC50) was 50 to 250 nM.
Turning to `[2H]C1([2H])N(C(C)Cn2c(C#N)cc3c(C)c(CN4CCC(Nc5ncnc6sc(CC(F)(F)F)cc56)CC4)ccc32)C([2H])([2H])C([2H])([2H])N(S(C)(=O)=O)C1([2H])[2H]` (centres unmarked) [Compound 161], the IC50 was 50 to 250 nM.
The figure for `Cc1c(CN2CCC(Nc3ncnc4sc(CC(F)(F)F)cc34)CC2)ccc2c1cc(C#N)n2C[C@H](C)N1CCN(S(C)(=O)=O)[C@@H](C(N)=O)C1` [Compound 164] is 50 to 250 nM.
On to `Cc1c(CN2CCC(Nc3nc(N)nc4sc(CC(F)(F)F)cc34)CC2)ccc2c1cc(C#N)n2C[C@H](C)N1CCN(C(C)C)CC1` [Compound 166], for which the IC50 is below 50 nM.
For the molecule `Cc1c(CN2CCC(Nc3nc(N)nc4sc(CC(F)(F)F)cc34)CC2)ccc2c1cc(C#N)n2C[C@@H](C)N1CCN(S(C)(=O)=O)CC1` [Compound 167], the concentration for half-maximal inhibition (IC50) lay within 50 to 250 nM.
For `Cc1c(CN2CCC(Nc3nc(N)nc4sc(CC(F)(F)F)cc34)CC2)ccc2c1cc(C#N)n2C[C@H](C)N1CCC(F)(F)CC1` [Compound 168], the 50% inhibitory concentration (IC50) was 50 to 250 nM.
The value for `Cc1c(CN2CCC(Nc3ncnc4sc(CC(F)(F)F)cc34)CC2)ccc2c1cc(C#N)n2CC(C)N1CC(NS(C)(=O)=O)C1` (centres unmarked) [Compound 169] was 20 to 1000 nM; that for `Cc1c(CN2CCC(Nc3nc(N(C)C)nc4sc(CC(F)(F)F)cc34)CC2)ccc2c1cc(C#N)n2C[C@H](C)N1CCN(S(C)(=O)=O)CC1` [Compound 170] was above 1000 nM.
The figure for `Cc1c(CN2CCC(Nc3nc(C4CC4)nc4sc(CC(F)(F)F)cc34)CC2)ccc2c1cc(C#N)n2C[C@H](C)N1CCN(S(C)(=O)=O)CC1` [Compound 173] is 20 to 1000 nM.
Turning to `Cc1nc(NC2CCN(Cc3ccc4c(cc(C#N)n4C[C@H](C)N4CCN(CC(N)=O)CC4)c3C)CC2)c2cc(CC(F)(F)F)sc2n1` [Compound 178], the IC50 was below 50 nM.
In the case of `Cc1c(CN2CCC(Nc3nc(N)nc4sc(CC(F)(F)F)cc34)CC2)ccc2c1cc(C#N)n2C[C@H](C)N1C[C@@H](C)N(S(C)(=O)=O)[C@H](C)C1` [Compound 179], the half-maximal inhibitory concentration (IC50) is 50 to 250 nM.
As for `Cc1c(CN2CCC(Nc3nc(N)nc4sc(CC(F)(F)F)cc34)CC2)ccc2c1cc(C#N)n2C[C@@H](C)N1C[C@@H](C)N(S(C)(=O)=O)[C@H](C)C1` [Compound 180], the IC50 lay in the range of 50 to 250 nM.
Take `CNc1nc(NC2CCN(Cc3ccc4c(cc(C#N)n4C[C@H](C)N4CCN(CC(N)=O)CC4)c3C)CC2)c2cc(CC(F)(F)F)sc2n1` [Compound 182]: the IC50 is below 50 nM.
Consider `CNS(=O)(=O)C1CCN([C@@H](C)Cn2c(C#N)cc3c(C)c(CN4CCC(Nc5nc(N)nc6sc(CC(F)(F)F)cc56)CC4)ccc32)CC1` [Compound 184], for which the IC50 is below 50 nM.
The value for `CNc1nc(NC2CCN(Cc3ccc4c(cc(C#N)n4C[C@H](C)N4CCC(S(=O)(=O)NC)CC4)c3C)CC2)c2cc(CC(F)(F)F)sc2n1` [Compound 185] was 50 to 250 nM; that for `CNS(=O)(=O)C1CCN([C@@H](C)Cn2c(C#N)cc3c(C)c(CN4CCC(Nc5nc(C)nc6sc(CC(F)(F)F)cc56)CC4)ccc32)CC1` [Compound 186] was below 50 nM.
With `Cc1c(CN2CCC(Nc3nc(N)nc4sc(CC(F)(F)F)cc34)CC2)ccc2c1cc(C#N)n2C[C@H](C)N1CCN(S(=O)(=O)CCO)CC1` [Compound 187], the IC50 is below 50 nM.
Take `Cc1c(CN2CCC(Nc3nc(N)nc4sc(CC(F)(F)F)cc34)CC2)ccc2c1cc(C#N)n2C[C@H](C)N1CCOCC1` [Compound 188]: the IC50 lay in the range of 50 to 250 nM.
The value for `CNC(=O)CN1CCN([C@@H](C)Cn2c(C#N)cc3c(C)c(CN4CCC(Nc5nc(NC)nc6sc(CC(F)(F)F)cc56)CC4)ccc32)CC1` [Compound 189] was below 50 nM; that for `Cc1c(CN2CCC(Nc3nc(N)nc4sc(CC(F)(F)F)cc34)CC2)ccc2c1cc(C#N)n2C[C@H](C)N1CCN(C2CC2)CC1` [Compound 190] was 50 to 250 nM; that for `CNc1nc(NC2CCN(Cc3ccc4c(cc(C#N)n4C[C@H](C)N4CCN(CC(=O)N(C)C)CC4)c3C)CC2)c2cc(CC(F)(F)F)sc2n1` [Compound 191] was below 50 nM.
Regarding `CNc1nc(NC2CCN(Cc3ccc4c(cc(C#N)n4C[C@H](C)N4CCN(S(=O)(=O)NC)CC4)c3C)CC2)c2cc(CC(F)(F)F)sc2n1` [Compound 192], the IC50 is below 50 nM.
With `CNc1nc(NC2CCN(Cc3ccc4c(cc(C#N)n4C[C@H](C)N4CCC(S(C)(=O)=O)CC4)c3C)CC2)c2cc(CC(F)(F)F)sc2n1` [Compound 193], the 50% inhibitory concentration (IC50) was below 50 nM.
The value for `CNc1nc(NC2CCN(Cc3cc4cc(C#N)n(C[C@H](C)N5CCN(S(C)(=O)=O)CC5)c4cc3O)CC2)c2cc(CC(F)(F)F)sc2n1` [Compound 194] was below 50 nM.
